Here are results for three molecules from patent US6803195B1, “Facile detection of cancer and cancer risk based on level of coordination between alleles” (Ramot At Tel-Aviv University Ltd., priority 1999, dated 2004).

Values joined by “and” are separate entries in the source; they are usually repeats but may differ in a detail not shown here. Identical values can stand only once.

Assay [1] concerns CAD samples (hematological malignancy patients at diagnosis). Description: FISH replication assay, cultures of hematological malignancy patients (CAD) with chromatin modifiers (Example 10). Format: cell-based, human. The note with it: for frequency (%) of SD cells, Mean: N = 10; for replication pattern in cells derived from cancer patients: cultured cells with chromatin modifier. From the text: (§1) Cultures were set up from 44 healthy individuals (hereafter called CON) and 20 hematological malignancy patients at diagnosis (hereafter termed CAD). For 20 of the CON samples and all of the CAD samples peripheral in addition to the setting up cultures in the regular growth medium, cultures were set up in medium containing 5-azacytidine (10^−7M; Sigma, USA; hereafter referred to as AZA) a demethylating agent. In addition, cultures from 6 CON and 10 CAD samples were set up in medium containing a deacetylating agents, either Trichostatin A (33 nM; Sigma, USA; hereafter referred to as TSA) or Sodium Butirate (1 nM; Sigma, USA; hereafter referred to as NB), two well described acetylating agents.
(§2) These samples were hybridized with two commercial probes: the AML1 probe (LSI 21, […]) and the α-satellite probe specific for centromere 17 (32-130017, hereafter marked as CEN17). The results are summarized in Table 1 giving the number of samples hybridized with each probe (N), Mean and standard deviation (stdev) as well as the p value obtained using two tailed student's t-test (Microsoft Office 98).

Assay [2] has as its system CON samples (healthy individuals). The experiment in a line: FISH replication assay, cultures of healthy individuals (CON) with chromatin modifiers (Example 10). Format: cell-based, human. The note with it: cultured cells with chromatin modifier.
Text: as §1, §2

In assay [3] the test system is peripheral blood lymphocytes (PBL). The experiment in a line: FISH replication assay on PBL of healthy donors treated with GCSF. Format: in vivo, human. The note with it: five days after GCSF treatment; for % SD after GCSF treatment, Average: PBL of healthy donors, n = 6 as printed; for % SD after GCSF treatment: PBL of individual healthy donors. From the text:
Healthy subjects treated with GCSF. Seven first degree relatives (sibling or parent) of patients suffering from hematological malignancies who were candidates for donating peripheral blood stem cells agreed to participate in the study. PBL were collected before treatment with GCSF and five days after treatment, on the day of collecting cells for transplantation. Six donors were male, one female.
Comparison of synchrony in healthy subjects, cancer patients and GCSF-treated healthy donors. Bone marrow and PBL samples were obtained with informed consent from healthy control subjects and patients as detailed hereinabove. Samples were analyzed by FISH as described hereinabove.
It is believed that the SD cell percentage values are enhanced for a limited time and return to normal after cessation of GCSF treatment. The samples tested here were obtained five days after GCSF treatment. This period is usually chosen for obtaining cells for transplantation, because at the effect of GCSF is maximal five days after administration.

With `CC(/C=C/C(=O)NO)=C\[C@@H](C)C(=O)c1ccc(N(C)C)cc1` [TSA, Trichostatin A], the “frequency (%) of SD cells, Mean” value in assay [1] (AML1 locus, CAD + TSA (33 nM)) is given as “Mean = 24.2%”; in assay [1] (CEN17 locus, CAD + TSA (33 nM)) it was “Mean = 20.3%”. Moreover, in assay [1], the “replication pattern in cells derived from cancer patients” value is reported as “attenuate the replication pattern presented in cells derived from cancer patients towards the normal”. For the same molecule, the “replication pattern observed in normal genomes” value in assay [2] was “not affecting”.

Consider `CCCC(=O)[O-].[Na+]` [NB, Sodium Butirate], for which the “frequency (%) of SD cells, Mean” value in assay [1] (AML1 locus, CAD + NB (1 nM)) is given as “Mean = 23.2%”; in assay [1] (CEN17 locus, CAD + NB (1 nM)), “Mean = 19.6%”. Moreover, the “replication pattern in cells derived from cancer patients” value in assay [1] was “attenuate the replication pattern presented in cells derived from cancer patients towards the normal”. Moreover, the “replication pattern observed in normal genomes” value in assay [2] is listed as “not affecting”.

B1: GCSF: hematopoietic growth factor given to donors of bone marrow cells to enhance the number of stem cells (protein, UniProt P09919 31-207, looked up)
Granulocyte …: TPLGPASSLPQSFLLKCLEQVRKIQGDGAALQEKLVSECATYKLCHPEELVLLGHSLGIPWAPLSSCPSQALQLAGCLSQLHSGLFLYQGLLQALEGISPELGPTLDTLQLDVADFATTIWQQMEELGMAPALQPTQGAMPAFASAFQRRAGGVLVASHLQSFLEVSYRVLRHLAQP
On to B1, for which the “% SD after GCSF treatment, Average” value in assay [3] (21q22 probe (D21S55)) was found to be 35.42%; in assay [3] (TP53 probe) it was 36.57%. The “% SD after GCSF treatment” value is 32% and 43% and 39% (2×) and 31% and 29% and 35% in assay [3] (21q22 probe (D21S55)); 34% (2×) and 41% and 38% and 36% (2×) and 37% in assay [3] (TP53 probe).
